Experimental findings from US20260286322A1, “PROTEIN TYROSINE P[…] DOMAIN PEPTIDE DIMER FOR NERVOUS SYSTEM REPAIR” (NervGen Pharma Corp., priority 2023, published 2026) are described below.

This test concerns SCI rats. As to the kind of experiment: Percentage of SCI rats reaching predefined BBB and/or bladder score thresholds at end of study. In kind it is in vivo, rat. An excerpt:
In this study, the effects of Compound 8 in improving the recovery of open field locomotor performance and bladder function in the SCI rats were further evaluated in comparison with Compound 4 by assessing the BBB scores and bladder scores according to the methods described in Example 3.
In this assessment, 12-13 rats were included in each of the following groups (1) Control group 1: SCI+saline alone; (2) Control group 2: SCI+Compound 4 in saline; (3) Testing group: SCI+Compound 8. The treatment was started on day 1 post-injury and continued through (last dose administered on) day 49 post-injury. The post-treatment observation period commenced on day 50 post-injury and continued until the end of study on day 84 post-injury.
At the end of the study, the performance of Compound 8 was evaluated in comparison with Compound 4 and saline alone by calculating the percentages of animals achieving predefined thresholds of functional improvement in the following categories: (i) Simultaneous improvement in BBB and bladder scores, (ii) Improvement in the locomotor function (BBB score) alone but not the in the bladder score, (iii) Improvement in the bladder score alone but not in the BBB score. FIG. 16 depicts the percentage of rats in each of these three categories, as annotated on the X-axis. An additional group (annotated as “Combined”) represents the combined percentage of rats achieving improvement in any of the first three categories for each treatment cohort (saline alone, Compound 4, and Compound 8). […]

In the case of “TAT-Cys-rodent PTPRS wedge domain homodimer [Compound 8]”, under “end of study”, the “percentage of rats reaching BBB score of 11 alone” value is on record as “about 8%”; the “percentage of rats with BBB score of 11 and bladder score of 2 or less simultaneously” value was “about 40%”. In addition, under “end of study (day 84)”, the “percentage of rats with BBB score of at least 10 and bladder score of 2 or less simultaneously” value is listed as about 50%; the “percentage of rats with improvement in the BBB score only (at least 10, no bladder score improvement)” value is given as “about 15%”. Further, the “percentage of rats with improvement in bladder-only scores (2 or less, no BBB improvement)” value (end of study (day 84), BBB threshold 10) is “about 8%”. For the same substance, the “combined rate of functional improvement (simultaneous, BBB only and bladder only combined)” value (end of study (day 84), thresholds BBB at least 10, bladder 2 or less) is given as “about 70%”. Also, the “combined rate of functional improvement (BBB 11 only, bladder 2 or lower only, and both)” value (end of study, thresholds BBB 11, bladder 2 or lower) was “about 60%”.
